From publication PMC9231089, “Sorafenib Chemosensitization by Caryophyllane Sesquiterpenes in Liver, Biliary, and Pancreatic Cancer Cells: The Role of STAT3/ABC Transporter Axis” (Pharmaceutics, 2022)
Marks after values point to notes of the source that are not given here.

How the values were obtained:
[1] = target: T1, Pgp (Homo sapiens, UniProt P08183); experiment: ABC-mediated drug efflux assay, rhodamine 123 accumulation, HepG2 cells; conditions: 2 h pre-treatment, sesquiterpenes 10 μg/mL, verapamil 1 μg/mL, vs control
Description: (§1) The ability of β-caryophyllene and β-caryophyllene oxide to inhibit the activity of Pgp and MRP1/2 transporters was measured according to previously published methods with slight modifications. […] Fluorescence was measured at excitation and emission wavelengths of 485 nm and 535 nm for both probes, using a Cytation 1 Cell Imaging Multimode Reader (Biotech, Santa Clara, CA, USA). Results were normalized to viable cells and expressed as percentage of the negative control.

[2] = system: Bx-PC3; experiment: MTT cytotoxicity assay, substances alone, Bx-PC3; type: cell-based, human
Description: (§2) Suitable vehicle controls were also included.
(§3) The effect of the treatments on cell viability was measured by the MTT assay as previously described. A higher than 30% reduction of cell viability was considered as a significant cytotoxic effect.

[3] = system: Bx-PC3; experiment: Combination assay with sorafenib (MTT), Bx-PC3; type: cell-based, human;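 on increase of sorafenib cytotoxicity in combination: percent increase of sorafenib cell viability inhibition versus sorafenib alone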
Description: as §2
(§4) The type of interaction (synergistic, additive, or antagonistic) among sorafenib and test substances or positive controls was evaluated by measuring the reversal ratio value (RR), combination index (CI), and isobolographic analysis (IB), as previously described.

[4] = system: MRP1/2; experiment: ABC-mediated drug efflux assay, calcein-AM accumulation, Bx-PC3 cells; type: cell-based, human; conditions: 2 h pre-treatment, sesquiterpenes 10 μg/mL, MK571 1 μg/mL, vs control
[5] = system: MRP2; experiment: RT-qPCR gene expression in Bx-PC3 cells, MRP2; conditions: substance in combination with sorafenib, given for MRP1 and MRP2 together
Description: (§6) Confluent cells were treated with the test substances, both alone or in combination with the anticancer drug, for 4 h, then washed and incubated for a further 72 h (Figure 1), according to previously published protocols [20]. […] Suitable vehicle controls were also included.
(§7) The results of mRNA abundance for the targeted genes in each sample were normalized on the basis of GAPDH (Bio-Rad, Hercules, CA, USA) mRNA. Data are expressed as 2^−ΔCt, calculated using the CFX Manager software (Bio-Rad).

[6] = system: Mz-ChA-1; experiment: MTT cytotoxicity assay, substances alone, Mz-ChA-1; type: cell-based, human; conditions: Mz-ChA-1
Description: as §2, §3

[7] = system: phospho(Tyr705)-STAT3; experiment: Western blotting of STAT3 phosphorylation in Bx-PC3 cells; type: cell-based, human
Description: as §2
Confluent cells were seeded in 6-well plates (5 × 10^5 cells/well), treated as described above, then harvested by centrifugation and washed in PBS. After lysis with a suitable buffer, the Western blotting analysis was carried out, according to previously published methods. […] The levels of phospho(Tyr705)-STAT3 were normalized against total STAT3 ones.

[8] = system: MRP2; experiment: Immunofluorescence analysis in Bx-PC3 cells, MRP2; type: cell-based, human
Description: as §2
(§5) The analysis was performed according to previously published methods. Confluent cells were seeded in 24-well plates (2 × 10^4 cells/well), allowed to adhere overnight, then treated as described above. After treatment, cells were fixed in pure methanol and washed with 4% bovine serum albumin (BSA) and PBS + Tween 20 (PBS-T) for 1 h. […] The expression and localization of Pgp, MRP1, and MRP2 pumps into cells were analyzed by using a Cytation 1 Cell Imaging Multimode Reader (Biotech, USA).

[9] = system: MRP1/2; experiment: ABC-mediated drug efflux assay, calcein-AM accumulation, Mz-ChA-1 cells; type: cell-based, human; conditions: 2 h pre-treatment, sesquiterpenes 10 μg/mL, vs control
[10] = system: MRP1; experiment: RT-qPCR gene expression in Bx-PC3 cells, MRP1; type: cell-based, human; conditions: substance in combination with sorafenib, given for MRP1 and MRP2 together
Excerpt: as §2

[11] = system: MRP1; experiment: Immunofluorescence analysis in Bx-PC3 cells, MRP1; type: cell-based, human; conditions: substance 10 µg/mL in combination with sorafenib 10 µg/mL
Description: as §2, §5

[12] = set-up: method as in PMID 33081075; conditions: European Food Safety Authority; cited from earlier work
[13] = system: HepG2; experiment: MTT cytotoxicity assay, substances alone, HepG2; type: cell-based, human; conditions: HepG2
Description: as §2, §3

[14] = system: Bx-PC3 cells; experiment: Wound healing assay (cell migration); type: cell-based, human
Description: To evaluate the effect of caryophyllane sesquiterpenes, both alone and in combination with sorafenib, on the cell migration rate, the wound healing assay was performed. Bx-PC3 cells were seeded in 24-well plate at a density of 2.5 × 10^5 cells/well. After 24 h, the wound was created by scratching the well bottom with a 100 μL pipette tip, then the cells were treated under the scheduled conditions and images were captured at 0, 4, and 72 h using a Cytation 1 Cell Imaging Multi-Mode Reader. […] Results were expressed as wound area percentage with respect to that of the same well at zero time. The positive controls were also included.

[15] = system: noncancerous H69 cholangiocytes; experiment: Combination assay with sorafenib (MTT), tolerability in H69; type: cell-based, human; conditions: sesquiterpene 10 μg/mL combined with sorafenib (protective effect at sorafenib 10 μg/mL)
Description: as §2, §4

[16] = target: T1, Pgp; experiment: ABC-mediated drug efflux assay, rhodamine 123 accumulation, Mz-ChA-1 cells; conditions: 2 h pre-treatment, sesquiterpenes 10 μg/mL, verapamil 1 μg/mL, vs control
Description: as §1

[17] = set-up: method as in PMID 30659321; conditions: previous in vivo study; cited from earlier work
[18] = system: HepG2; experiment: Combination assay with sorafenib (MTT), HepG2; type: cell-based, human; conditions: for increase of sorafenib cytotoxicity in combination: verapamil/MK571 1 µg/mL or sesquiterpenes 10 µg/mL;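 on increase of sorafenib cytotoxicity in combination: percent increase of sorafenib cell viability inhibition versus sorafenib alone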
Description: as §2, §4

[19] = system: MDR1; experiment: RT-qPCR gene expression in Bx-PC3 cells, MDR1
Description: as §6, §7

[20] = system: noncancerous H69 cholangiocytes; experiment: MTT cytotoxicity assay (tolerability), substances alone, H69; type: cell-based, human; conditions: H69 noncancerous cholangiocytes; substance alone; 4 h exposure + 72 h recovery
Description: as §2, §3

[21] = system: Mz-ChA-1; experiment: Combination assay with sorafenib (MTT), Mz-ChA-1; type: cell-based, human;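 on increase of sorafenib cytotoxicity in combination: percent increase of sorafenib cell viability inhibition versus sorafenib alone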
Description: as §2, §4

[22] = target: T1, Pgp; experiment: ABC-mediated drug efflux assay, rhodamine 123 accumulation, Bx-PC3 cells; conditions: 2 h pre-treatment, sesquiterpenes 10 μg/mL, verapamil 1 μg/mL, vs control
Description: as §1

[23] = system: MRP1/2; experiment: ABC-mediated drug efflux assay, calcein-AM accumulation, HepG2 cells; type: cell-based, human; conditions: 2 h pre-treatment, sesquiterpenes 10 μg/mL, vs control
[24] = system: Pgp; experiment: Immunofluorescence analysis in Bx-PC3 cells, Pgp; type: cell-based, human
Description: as §2, §5

[25] = substance alone, 4 h exposure + 72 h recovery
[26] = substance in combination with sorafenib 10 μg/mL

T1 sequence (P08183 whole entry): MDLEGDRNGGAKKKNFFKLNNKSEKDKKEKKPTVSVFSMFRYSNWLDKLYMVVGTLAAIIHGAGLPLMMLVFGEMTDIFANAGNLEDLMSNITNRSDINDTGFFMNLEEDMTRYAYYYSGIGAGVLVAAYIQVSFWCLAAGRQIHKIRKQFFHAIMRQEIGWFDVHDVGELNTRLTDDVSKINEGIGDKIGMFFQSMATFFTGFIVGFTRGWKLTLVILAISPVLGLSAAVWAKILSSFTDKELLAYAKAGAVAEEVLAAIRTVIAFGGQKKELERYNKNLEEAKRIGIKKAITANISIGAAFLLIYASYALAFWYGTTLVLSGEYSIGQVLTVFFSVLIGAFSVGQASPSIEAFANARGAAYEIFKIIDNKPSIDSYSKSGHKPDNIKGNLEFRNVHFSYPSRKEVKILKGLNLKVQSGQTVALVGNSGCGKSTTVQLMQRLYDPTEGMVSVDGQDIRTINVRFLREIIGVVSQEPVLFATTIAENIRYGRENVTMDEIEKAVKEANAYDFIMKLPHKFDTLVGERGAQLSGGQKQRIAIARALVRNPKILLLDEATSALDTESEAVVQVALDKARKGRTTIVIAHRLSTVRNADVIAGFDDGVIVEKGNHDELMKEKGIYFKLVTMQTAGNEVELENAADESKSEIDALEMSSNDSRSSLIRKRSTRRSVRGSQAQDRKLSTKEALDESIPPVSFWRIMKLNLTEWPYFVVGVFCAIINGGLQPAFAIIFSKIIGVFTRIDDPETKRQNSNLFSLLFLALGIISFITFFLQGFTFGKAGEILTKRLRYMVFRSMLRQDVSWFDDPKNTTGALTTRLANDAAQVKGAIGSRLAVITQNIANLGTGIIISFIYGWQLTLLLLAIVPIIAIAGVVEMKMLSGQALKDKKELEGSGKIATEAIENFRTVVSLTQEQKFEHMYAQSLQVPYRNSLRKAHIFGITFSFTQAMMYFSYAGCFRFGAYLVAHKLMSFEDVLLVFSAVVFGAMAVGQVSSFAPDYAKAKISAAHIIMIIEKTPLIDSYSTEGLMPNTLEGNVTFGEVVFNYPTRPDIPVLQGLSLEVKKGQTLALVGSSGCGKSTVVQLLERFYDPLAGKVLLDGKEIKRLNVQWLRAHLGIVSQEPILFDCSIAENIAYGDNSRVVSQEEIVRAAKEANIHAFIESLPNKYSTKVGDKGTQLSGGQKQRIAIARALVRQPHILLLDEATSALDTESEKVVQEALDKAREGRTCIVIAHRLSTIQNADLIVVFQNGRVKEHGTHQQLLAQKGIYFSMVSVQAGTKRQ

C=C1CC[C@H]2O[C@]2(C)CC[C@@H]2[C@@H]1CC2(C)C [β-Caryophyllene oxide, β-caryophyllene oxide]
increase of rhodamine 123 accumulation [1]: ~2.5 fold | IC50 higher than that of sorafenib [2]: 2.1 fold | inhibition of cell viability ([2]; 50 µg/mL): 30% | inhibition of cell viability ([2]; 250 µg/mL): 95% | IC50 (CL) [2, 25]: 65.3 (62.1–68.7) *** µg/mL | reduction of sorafenib IC50 in the presence of the substance [3]: 9 fold | combination index (CI) with sorafenib ([3]; CI lower than 1 = synergistic): 0.26 | increase of sorafenib cytotoxicity in combination ([3]; sesquiterpenes 10 µg/mL, sorafenib concentration not stated (Figure 3F)): 64% | increase of calcein-AM accumulation [4]: ~3.0 fold | reduction of MRP2 gene expression [5]: 3 fold | IC50 higher than that of sorafenib [6]: 1.2 fold | inhibition of cell viability ([6]; 50 µg/mL): 16% | inhibition of cell viability ([6]; 250 µg/mL): 90% | IC50 (CL) [6, 25]: 94.5 (90.1–99.1) ** µg/mL | increase of STAT3 phosphorylation at tyrosine 705 ([7]; substance alone, sorafenib and sesquiterpenes 10 μg/mL, verapamil/MK571 1 μg/mL, normalized to total STAT3): approximately 3 fold | reduction of phospho(Tyr705)-STAT3 with respect to sorafenib [7, 26]: 2.6 fold | reduction of MRP2 expression with respect to sorafenib ([8]; substance 10 µg/mL in combination with sorafenib 10 µg/mL): 1.6 fold | increase of MRP2 expression (immunofluorescence) ([8]; substance alone, 10 µg/mL): 1.2 fold | increase of calcein-AM accumulation [9]: ~1.4 fold | reduction of MRP1 gene expression [10]: 3 fold | reduction of MRP1 expression with respect to sorafenib [11]: 1.5 fold | considered safe up to (approved as flavoring) [12]: ≤ 109 mg/kg/die | IC50 higher than that of sorafenib [13]: 1.7 fold | IC50 (CL) ([13]; substance alone, 4 h exposure + 72 h recovery, CL confidence limits): 78.7 (76.8–80.5) *** µg/mL | wound area / cell migration after 72 h ([14]; substance alone, sesquiterpenes 10 µg/mL, verapamil/MK571 1 µg/mL): blocked cell migration | increase of wound area ([14]; substance in combination with sorafenib 10 µg/mL, reference and time not stated): ~5 fold | effect on sorafenib cytotoxicity in noncancerous cells [15]: null effect | increase of rhodamine 123 accumulation [16]: ~1.2 fold | safety in vivo up to [17]: ≤ 100 mg/kg | reduction of sorafenib IC50 in the presence of the substance [18]: ~6 fold | combination index (CI) with sorafenib ([18]; CI lower than 1 = synergistic): 0.29 | increase of sorafenib cytotoxicity in combination ([18]; sorafenib 1 µg/mL): 20% | increase of sorafenib cytotoxicity in combination ([18]; sorafenib 10 µg/mL): ~44% | increase of MDR1 gene expression with respect to control [19, 25]: 4.7 fold | downregulation of MDR1 gene with respect to sorafenib alone ([19]; substance in combination with sorafenib): 1.3 fold | IC50 (CL) [20]: 99.7 (93.1–106.9) *** µg/mL | reduction of sorafenib IC50 in the presence of the substance [21]: ~1.5 fold | combination index (CI) with sorafenib ([21]; CI lower than 1 = synergistic): 0.76 | increase of sorafenib cytotoxicity in combination ([21]; sorafenib 10 µg/mL, verapamil/MK571 1 µg/mL or sesquiterpenes 10 µg/mL): 14% | increase of sorafenib cytotoxicity in combination ([21]; sorafenib 50 µg/mL, sesquiterpenes 10 µg/mL): 13% | increase of rhodamine 123 accumulation [22]: approximately 2.7 fold | increase of calcein-AM accumulation [23]: approximately 1.3 fold | effect on Pgp expression (immunofluorescence) ([24]; substance alone, sorafenib and sesquiterpenes 10 µg/mL, verapamil 1 µg/mL): did not affect | reduction of Pgp expression compared to control [24, 26]: ~1.8 fold
